Test results reported in ChEMBL document CHEMBL3397033, “Bioactive benzofuran derivatives: moracins A-Z in medicinal chemistry” (Eur J Med Chem, 2015).
Converted amounts (≈) assume the structure as drawn.

Assays:
[1] = system: Staphylococcus aureus; test: Antimicrobial activity against methicillin-sensitive Staphylococcus aureus; assay type: functional
[2] = system: Staphylococcus aureus; test: Antimicrobial activity against methicillin-resistant Staphylococcus aureus; assay type: functional
[3] = system: Micrococcus luteus; test: Antimicrobial activity against Micrococcus luteus; assay type: functional
[4] = system: Bacillus subtilis; test: Antimicrobial activity against Bacillus subtilis; assay type: functional
[5] = system: Escherichia coli; test: Antimicrobial activity against Escherichia coli; assay type: functional
[6] = system: Klebsiella pneumoniae; test: Antimicrobial activity against Klebsiella pneumoniae; assay type: functional
[7] = system: Pseudomonas aeruginosa; test: Antimicrobial activity against Pseudomonas aeruginosa; assay type: functional
[8] = system: Citrobacter freundii; test: Antimicrobial activity against Citrobacter freundii by liquid microdilution assay; assay type: functional
[9] = system: Escherichia coli; test: Antimicrobial activity against Escherichia coli by liquid microdilution assay; assay type: functional
[10] = system: Shigella dysenteriae; test: Antimicrobial activity against Shigella dysenteriae by liquid microdilution assay; assay type: functional
[11] = system: Pseudomonas aeruginosa; test: Antimicrobial activity against Pseudomonas aeruginosa by liquid microdilution assay; assay type: functional
[12] = system: Klebsiella pneumoniae; test: Antimicrobial activity against Klebsiella pneumoniae by liquid microdilution assay; assay type: functional
[13] = system: Salmonella typhi; test: Antimicrobial activity against Salmonella typhi by liquid microdilution assay; assay type: functional, Salmonella enterica subsp. enterica serovar Typhi; conditions: Salmonella enterica
[14] = system: Enterococcus faecalis; test: Antimicrobial activity against Streptococcus faecalis by liquid microdilution assay; assay type: functional
[15] = system: Microsporum audouinii; test: Antimicrobial activity against Microsporum audouinii by liquid microdilution assay; assay type: functional
[16] = system: Escherichia coli; test: Microbicidal activity against Escherichia coli by liquid microdilution assay; assay type: functional
[17] = system: Shigella dysenteriae; test: Microbicidal activity against Shigella dysenteriae by liquid microdilution assay; assay type: functional
[18] = system: Pseudomonas aeruginosa; test: Microbicidal activity against Pseudomonas aeruginosa by liquid microdilution assay; assay type: functional
[19] = system: Klebsiella pneumoniae; test: Microbicidal activity against Klebsiella pneumoniae by liquid microdilution assay; assay type: functional
[20] = system: Salmonella typhi; test: Microbicidal activity against Salmonella typhi by liquid microdilution assay; assay type: functional, Salmonella enterica subsp. enterica serovar Typhi; conditions: Salmonella enterica
[21] = system: Enterococcus faecalis; test: Microbicidal activity against Streptococcus faecalis by liquid microdilution assay; assay type: functional
[22] = system: Microsporum audouinii; test: Microbicidal activity against Microsporum audouinii by liquid microdilution assay; assay type: functional
[23] = biological target: T1, Hypoxia-inducible factor 1-alpha (Homo sapiens, UniProt Q16665); test: Inhibition of HIF-1alpha in human Hep3B cells cotransfected with pGL3-HRE-luciferase plasmid at > 50 uM after 24 hrs by dual-luciferase reporter assay; assay type: cell-based; conditions: hep 3b2
[24] = biological target: T1, Hypoxia-inducible factor 1-alpha; test: Inhibition of HIF-1alpha in human Hep3B cells assessed as decrease in VEGF level at > 50 uM after 20 hrs by ELISA; assay type: cell-based; conditions: hep 3b2
[25] = Cytotoxicity against human Hep3B cells assessed as cell viability after 24 hrs by MTT assay; assay type: cell-based, Hep 3B2
[26] = system: Mus musculus; test: Hypoglycemic activity in alloxan-induced diabetic mouse assessed as fasting blood glucose level at 50 mg/kg; assay type: functional
[27] = system: Mus musculus; test: Hypoglycemic activity in alloxan-induced diabetic mouse assessed as fasting blood glucose level at 10 mg/kg; assay type: functional
[28] = Antiinflammatory activity against rat PMN assessed as inhibition of PAF-induced beta-glucuronidase release relative to control; assay type: functional
[29] = biological target: Enoyl-[acyl-carrier-protein] reductase [NADPH] FabI (Staphylococcus aureus, UniProt Q6GI75); test: Inhibition of Staphylococcus aureus FabI-mediated trans-2-octenoyl N-acetylcysteamine (t-o-NAC thioester) substrate reduction assessed as decrease in NADPH […]
[30] = system: Staphylococcus aureus; test: Antimicrobial activity against Staphylococcus aureus RN4220 assessed as inhibition of cell growth by broth microdilution method; assay type: functional
[31] = system: Staphylococcus aureus; test: Antimicrobial activity against methicillin-resistant Staphylococcus aureus CCARM3167 assessed as inhibition of cell growth by broth microdilution method; assay type: functional
[32] = system: Staphylococcus aureus; test: Inhibition of fatty acid biosynthesis in Staphylococcus aureus assessed as incorporation of [1-14C]acetate by scintillation counting analysis; assay type: functional, organism-based
[33] = system: Staphylococcus aureus; test: Inhibition of protein biosynthesis in Staphylococcus aureus assessed as incorporation of [14C]leucine by scintillation counting analysis; assay type: functional, organism-based
[34] = system: Bacillus cereus; test: Antimicrobial activity against Bacillus cereus by liquid microdilution assay; assay type: functional
[35] = system: Staphylococcus aureus; test: Antimicrobial activity against Staphylococcus aureus by liquid microdilution assay; assay type: functional
[36] = system: Candida albicans; test: Antimicrobial activity against Candida albicans by liquid microdilution assay; assay type: functional
[37] = system: Citrobacter freundii; test: Microbicidal activity against Citrobacter freundii by liquid microdilution assay; assay type: functional
[38] = system: Bacillus cereus; test: Microbicidal activity against Bacillus cereus by liquid microdilution assay; assay type: functional
[39] = system: Staphylococcus aureus; test: Microbicidal activity against Staphylococcus aureus by liquid microdilution assay; assay type: functional
[40] = system: Candida albicans; test: Microbicidal activity against Candida albicans by liquid microdilution assay; assay type: functional
[41] = Antifungal activity against Fusarium roseum; assay type: functional
[42] = Antifungal activity against Fusarium lateritium f. sp. mori; assay type: functional
[43] = Antifungal activity against Fusarium solani f. sp. mori; assay type: functional
[44] = Antifungal activity against Diaporthe nomurai; assay type: functional
[45] = Antifungal activity against Stigmina mori; assay type: functional
[46] = system: Rosellinia necatrix; test: Antifungal activity against Rosellinia necatrix; assay type: functional
[47] = Antifungal activity against Cochliobolus miyabeanus; assay type: functional; conditions: Bipolaris oryzae
[48] = Antioxidant activity in liver (unknown origin) assessed as inhibition of Fe2+/cysteine system-induced lipid peroxidation; assay type: functional, tissue-based; conditions: dose or concentration not given here
[49] = system: Morus alba; test: Antioxidant activity in mulberry leaves assessed as UV-stress-induced free radical scavenging activity measured as inhibition of blue formazan at 100 uM; assay type: functional
[50] = Inhibition of alpha-glucosidase (unknown origin); design: species or system Homo sapiens
[51] = system: RAW264.7; test: Antiinflammatory activity against mouse RAW264.7 cells assessed as reduction of IFNgamma-induced NO production; assay type: functional, cell-based
[52] = system: RAW264.7; test: Antiinflammatory activity against mouse RAW264.7 cells assessed as reduction of LPS-induced NO production; assay type: functional, cell-based

T1 sequence (Q16665 whole entry): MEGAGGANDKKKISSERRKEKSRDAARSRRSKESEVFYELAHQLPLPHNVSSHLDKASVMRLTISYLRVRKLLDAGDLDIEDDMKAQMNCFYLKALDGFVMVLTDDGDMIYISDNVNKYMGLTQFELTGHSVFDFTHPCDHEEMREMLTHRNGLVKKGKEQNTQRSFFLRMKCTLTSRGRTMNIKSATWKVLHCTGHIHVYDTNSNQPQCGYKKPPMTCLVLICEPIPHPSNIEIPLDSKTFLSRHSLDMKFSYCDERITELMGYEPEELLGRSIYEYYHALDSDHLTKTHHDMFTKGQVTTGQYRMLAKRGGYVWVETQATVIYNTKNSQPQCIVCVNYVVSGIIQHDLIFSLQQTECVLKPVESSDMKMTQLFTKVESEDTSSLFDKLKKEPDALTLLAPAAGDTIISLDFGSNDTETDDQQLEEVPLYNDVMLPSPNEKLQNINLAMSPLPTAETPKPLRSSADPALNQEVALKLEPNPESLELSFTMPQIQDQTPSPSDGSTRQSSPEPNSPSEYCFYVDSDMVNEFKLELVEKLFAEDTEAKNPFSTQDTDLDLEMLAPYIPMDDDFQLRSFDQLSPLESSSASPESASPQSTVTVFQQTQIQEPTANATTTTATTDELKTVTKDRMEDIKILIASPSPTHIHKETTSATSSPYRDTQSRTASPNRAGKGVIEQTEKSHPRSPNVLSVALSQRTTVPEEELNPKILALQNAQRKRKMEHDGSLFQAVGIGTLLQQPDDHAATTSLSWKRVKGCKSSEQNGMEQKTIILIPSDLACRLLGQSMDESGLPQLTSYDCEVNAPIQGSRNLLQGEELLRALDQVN
Enoyl-[acyl-carrier-protein] reductase [NADPH] FabI, sequence (Q6GI75 whole entry): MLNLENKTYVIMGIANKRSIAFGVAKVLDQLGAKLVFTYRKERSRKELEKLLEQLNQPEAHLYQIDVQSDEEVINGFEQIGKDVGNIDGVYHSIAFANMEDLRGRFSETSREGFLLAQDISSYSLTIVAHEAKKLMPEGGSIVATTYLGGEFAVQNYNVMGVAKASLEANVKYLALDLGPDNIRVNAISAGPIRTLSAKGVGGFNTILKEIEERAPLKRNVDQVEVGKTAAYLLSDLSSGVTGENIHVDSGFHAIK

Oc1cc(O)cc(-c2cc3ccc(O)cc3o2)c1 [MORACIN M]
MIC [1]: 12.5 µg/mL (≈ 51.6 µM)
MIC [2]: 25 µg/mL (≈ 103 µM)
MIC [3]: 25 µg/mL (≈ 103 µM)
MIC [4]: 100 µg/mL (≈ 413 µM)
MIC [5]: > 100 µg/mL
MIC [6]: > 100 µg/mL
MIC [7]: > 100 µg/mL
MIC [8]: 312 µg/mL (≈ 1290 µM)
MIC [9]: 78 µg/mL (≈ 322 µM)
MIC [10]: 78 µg/mL (≈ 322 µM)
MIC [11]: 156 µg/mL (≈ 644 µM)
MIC [12]: 312 µg/mL (≈ 1290 µM)
MIC [13]: 78 µg/mL (≈ 322 µM)
MIC [14]: 78 µg/mL (≈ 322 µM)
MIC [15]: 78 µg/mL (≈ 322 µM)
MBC [16]: 625 µg/mL (≈ 2580 µM)
MBC [17]: 156 µg/mL (≈ 644 µM)
MBC [18]: 625 µg/mL (≈ 2580 µM)
MBC [19]: 625 µg/mL (≈ 2580 µM)
MBC [20]: 156 µg/mL (≈ 644 µM)
MBC [21]: 156 µg/mL (≈ 644 µM)
MFC [22]: 312 µg/mL (≈ 1290 µM)
IC50 [23]: Not Active
IC50 [24]: Not Active
IC50 [25]: > 30 µM
Activity [26]: 20.08 mmol/L
Activity [27]: 18.52 mmol/L
inhibition (INH) [28]: 54%

CC(C)=CCc1c(O)cc(-c2cc3ccc(O)cc3o2)cc1O [MORACIN C]
MIC [1]: 6.25 µg/mL (≈ 20.1 µM)
MIC [2]: 12.5 µg/mL (≈ 40.3 µM)
MIC [3]: 12.5 µg/mL (≈ 40.3 µM)
MIC [4]: 3.13 µg/mL (≈ 10.1 µM)
MIC [5]: > 100 µg/mL
MIC [6]: > 100 µg/mL
MIC [7]: > 100 µg/mL
IC50 [29]: 83.8 µM
MIC [30]: 32 µg/mL (≈ 103 µM)
MIC [31]: 32 µg/mL (≈ 103 µM)
IC50 [32]: 74.8 µM
IC50 [33]: 188 µM
MIC [8]: 156 µg/mL (≈ 503 µM)
MIC [9]: 39 µg/mL (≈ 126 µM)
MIC [10]: 5 µg/mL (≈ 16.1 µM)
MIC [11]: 10 µg/mL (≈ 32.2 µM)
MIC [12]: 312 µg/mL (≈ 1010 µM)
MIC [13]: 10 µg/mL (≈ 32.2 µM)
MIC [34]: 78 µg/mL (≈ 251 µM)
MIC [35]: 78 µg/mL (≈ 251 µM)
MIC [14]: 39 µg/mL (≈ 126 µM)
MIC [36]: 68 µg/mL (≈ 219 µM)
MIC [15]: 78 µg/mL (≈ 251 µM)
MBC [37]: 625 µg/mL (≈ 2010 µM)
MBC [16]: 78 µg/mL (≈ 251 µM)
MBC [17]: 39 µg/mL (≈ 126 µM)
MBC [18]: 39 µg/mL (≈ 126 µM)
MBC [19]: 625 µg/mL (≈ 2010 µM)
MBC [20]: 39 µg/mL (≈ 126 µM)
MBC [38]: 156 µg/mL (≈ 503 µM)
MBC [39]: 156 µg/mL (≈ 503 µM)
MBC [21]: 78 µg/mL (≈ 251 µM)
MFC [40]: 156 µg/mL (≈ 503 µM)
MFC [22]: 312 µg/mL (≈ 1010 µM)
MIC [41]: 3.5 µg/mL (≈ 11.3 µM)
MIC [42]: 7 µg/mL (≈ 22.6 µM)
MIC [43]: 224 µg/mL (≈ 722 µM)
MIC [44]: 14 µg/mL (≈ 45.1 µM)
MIC [45]: 112 µg/mL (≈ 361 µM)
MIC [46]: 3.5 µg/mL (≈ 11.3 µM)
MIC [47]: 28 µg/mL (≈ 90.2 µM)
inhibition [48]: 73%
inhibition [49]: 64%
IC50 [50]: 4.04 µM
IC50 [51]: 8 µM
IC50 [52]: 8 µM
inhibition (INH) [28]: 100%
